Results from the NIST ThermoML archive (doi:10.1016/j.jct.2004.04.003).
Values joined by “and” are separate entries in the source; they are usually repeats but may differ in a detail not shown here. Identical values can stand only once.

Assay: molar heat capacity at saturation pressure

C1CCC(C2CCCC2)C1 [1,1'-bicyclopentyl]
Settings	molar heat capacity
120.99 K, Crystal 3, Vacuum adiabatic calorimetry	107.39 J/K/mol
126.75 K, Crystal 3, Vacuum adiabatic calorimetry	111.08 J/K/mol
128.4 K, Crystal 1, Vacuum adiabatic calorimetry	115.78 J/K/mol
128.4 K, Crystal 3, Vacuum adiabatic calorimetry	112.23 J/K/mol
130 K, Crystal 1, Vacuum adiabatic calorimetry	116.49 J/K/mol
133.46 K, Crystal 2, Vacuum adiabatic calorimetry	118.05 J/K/mol
133.78 K, Crystal 2, Vacuum adiabatic calorimetry	118.67 J/K/mol
134.12 K, Crystal 2, Vacuum adiabatic calorimetry	118.41 J/K/mol
135.2 K, Crystal 2, Vacuum adiabatic calorimetry	118.41 J/K/mol
139.41 K, Crystal 2, Vacuum adiabatic calorimetry	121.01 J/K/mol
140 K, Crystal 1, Vacuum adiabatic calorimetry	121.32 J/K/mol
142.47 K, Crystal 2, Vacuum adiabatic calorimetry	122.75 J/K/mol
143.12 K, Crystal 2, Vacuum adiabatic calorimetry	122.93 J/K/mol
150 K, Crystal 1, Vacuum adiabatic calorimetry	126.87 J/K/mol
151.25 K, Crystal 2, Vacuum adiabatic calorimetry	127.64 J/K/mol
152.11 K, Crystal 2, Vacuum adiabatic calorimetry	128.17 J/K/mol
160 K, Crystal 1, Vacuum adiabatic calorimetry	133.12 J/K/mol
160.68 K, Crystal 2, Vacuum adiabatic calorimetry	133.74 J/K/mol
160.78 K, Crystal 2, Vacuum adiabatic calorimetry	133.46 J/K/mol
166.89 K, Crystal 2, Vacuum adiabatic calorimetry	138.79 J/K/mol
170 K, Crystal 1, Vacuum adiabatic calorimetry	140.08 J/K/mol
171.5 K, Crystal 1, Vacuum adiabatic calorimetry	141.19 J/K/mol and 136.32 J/K/mol
173.81 K, Crystal 1, Vacuum adiabatic calorimetry	137.58 J/K/mol
178.13 K, Crystal 1, Vacuum adiabatic calorimetry	139.77 J/K/mol
180 K, Crystal 1, Vacuum adiabatic calorimetry	141.36 J/K/mol
181.67 K, Crystal 1, Vacuum adiabatic calorimetry	142.75 J/K/mol
182.42 K, Crystal 1, Vacuum adiabatic calorimetry	143.41 J/K/mol
186.12 K, Crystal 1, Vacuum adiabatic calorimetry	145.42 J/K/mol
190 K, Crystal 1, Vacuum adiabatic calorimetry	148.08 J/K/mol
190.41 K, Crystal 1, Vacuum adiabatic calorimetry	148.06 J/K/mol
194.17 K, Crystal 1, Vacuum adiabatic calorimetry	151.17 J/K/mol
200 K, Crystal 1, Vacuum adiabatic calorimetry	155.66 J/K/mol
202.37 K, Crystal 1, Vacuum adiabatic calorimetry	157.69 J/K/mol
210 K, Crystal 1, Vacuum adiabatic calorimetry	164.11 J/K/mol
210.53 K, Crystal 1, Vacuum adiabatic calorimetry	164.59 J/K/mol
215.22 K, Crystal 1, Vacuum adiabatic calorimetry	168.8 J/K/mol
218.83 K, Crystal 1, Vacuum adiabatic calorimetry	172.67 J/K/mol
220 K, Crystal 1, Vacuum adiabatic calorimetry	173.41 J/K/mol
223.28 K, Crystal 1, Vacuum adiabatic calorimetry	177.54 J/K/mol
230 K, Crystal 1, Vacuum adiabatic calorimetry	183.54 J/K/mol
230.93 K, Crystal 1, Vacuum adiabatic calorimetry	187.18 J/K/mol
237.82 K, Crystal 1, Vacuum adiabatic calorimetry	192.05 J/K/mol
420 K, Liquid	312.05 J/K/mol
440 K, Liquid	324.49 J/K/mol
460 K, Liquid	336.88 J/K/mol
480 K, Liquid	349.1 J/K/mol
500 K, Liquid	361.07 J/K/mol
520 K, Liquid	372.68 J/K/mol
540 K, Liquid	383.83 J/K/mol
560 K, Liquid	394.48 J/K/mol
580 K, Liquid	404.71 J/K/mol
600 K, Liquid	414.76 J/K/mol

Liquid, Vacuum adiabatic calorimetry
Settings	molar heat capacity [J/K/mol]
235.7 K	209.39
237.82 K	210.18
240 K	211.02
242.86 K	212.18
250 K	215.09
251.35 K	215.65
251.38 K	215.6
260 K	219.43
260.38 K	219.61
260.4 K	219.59
269.99 K	224.12
270 K	224.11
279.85 K	228.87
280 K	228.97
289.97 K	234.24
290 K	234.26
298.15 K	238.69
300 K	239.71
300.32 K	239.88
303.62 K	241.76
312.36 K	246.68
320 K	251.11
321.76 K	252.14
331.4 K	257.76
340 K	262.83
340.79 K	263.29
350.44 K	269.11
360 K	274.85
360.31 K	275.02
369.98 K	281.03
379.48 K	286.87
380 K	287.22
388.81 K	292.97
400 K	299.69
